Several values for one entry are separate records, joined by “and”; a condition that tells them apart may be missing. Identical values can stand only once.
Legend:
Donor 3 COP T-Cell Lines = experiment: ATP proliferation assay (CellTiter Glo), Donor 3 COP T-cell lines, incl. reactivity to non-canonical GA peptides; assay type: cell-based, human; conditions: for Non-Canonical Peptide Non-Reactivity: proliferation <2 times no antigen control
Donor 3 GMA T-Cell Lines = experiment: ATP proliferation assay (CellTiter Glo), Donor 3 GMA T-cell lines, incl. reactivity to non-canonical GA peptides; assay type: cell-based, human; conditions: for proliferation response to non-canonical GA peptides: 0, 1, 3, 10, 30 μg/mL; for Non-Canonical Peptide Non-Reactivity: proliferation <2 times no antigen control; for Non-Canonical Peptide Reactivity: at least one proliferation value >=2 times no antigen control

poly (Glu-Ala-Tyr; 6:3:1) [GAT 631]
Non-Canonical Peptide Non-Reactivity (Donor 3 COP T-Cell Lines; 165-B6C): GAT 631 | Non-Canonical Peptide Non-Reactivity (Donor 3 COP T-Cell Lines; 165-C4C): GAT 631 | Non-Canonical Peptide Non-Reactivity (Donor 3 COP T-Cell Lines; 165-C7C): GAT 631 | proliferation response to non-canonical peptides (Donor 3 COP T-Cell Lines; 165-E3C, separate experiment): did not react | Non-Canonical Peptide Non-Reactivity (Donor 3 COP T-Cell Lines; 165-F3C): GAT 631 | Non-Canonical Peptide Non-Reactivity (Donor 3 COP T-Cell Lines; 165-F6C): GAT 631 | Non-Canonical Peptide Non-Reactivity (Donor 3 COP T-Cell Lines; 165-U3C (so in the source)): GAT 631 | Nonreactive T-Cell Line (Donor 3 COP T-Cell Lines; Donor 3 COP lines, stimulation with the non-canonical GA peptide): 165-B6C (Donor 3) and 165-C4C (Donor 3) and 165-C7C (Donor 3) and 165-E3C (Donor 3) and 165-F3C (Donor 3) and 165-F6C (Donor 3) | Proliferation (luminescent ATP assay), Mean (Donor 3 COP T-Cell Lines; T-cell line 165-C4C, 1 μg/mL antigen, Day 66 of culture, 0 μg/mL 1881): 2489 | Proliferation (luminescent ATP assay), Mean (Donor 3 COP T-Cell Lines; T-cell line 165-C4C, 3 μg/mL antigen, Day 66 of culture, 0 μg/mL 1881): 2687 | Proliferation (luminescent ATP assay), Mean (Donor 3 COP T-Cell Lines; T-cell line 165-C4C, 10 μg/mL antigen, Day 66 of culture, 0 μg/mL 1881): 2682 | Proliferation (luminescent ATP assay), Mean (Donor 3 COP T-Cell Lines; T-cell line 165-C7C, 1.25 μg/mL antigen, autologous B-LCL): 232 RLU | Proliferation (luminescent ATP assay), Mean (Donor 3 COP T-Cell Lines; T-cell line 165-C7C, 2.5 μg/mL antigen, autologous B-LCL): 204 RLU | Proliferation (luminescent ATP assay), Mean (Donor 3 COP T-Cell Lines; T-cell line 165-C7C, 5 μg/mL antigen, autologous B-LCL): 200 RLU | Proliferation (luminescent ATP assay), Mean (Donor 3 COP T-Cell Lines; T-cell line 165-C7C, 10 μg/mL antigen, autologous B-LCL): 184 RLU | Proliferation (luminescent ATP assay), Mean (Donor 3 COP T-Cell Lines; T-cell line 165-F3C, 1 μg/mL antigen, Day 77 of culture, 0 μg/mL 1563): 2389 | Proliferation (luminescent ATP assay), Mean (Donor 3 COP T-Cell Lines; T-cell line 165-F3C, 3 μg/mL antigen, Day 77 of culture, 0 μg/mL 1563): 2249 | Proliferation (luminescent ATP assay), Mean (Donor 3 COP T-Cell Lines; T-cell line 165-F3C, 10 μg/mL antigen, Day 77 of culture, 0 μg/mL 1563): 2391 | Proliferation (luminescent ATP assay), Mean (Donor 3 COP T-Cell Lines; T-cell line 165-F6C, 1.25 μg/mL antigen, Day 76 of culture, No Antigen value 517): 516 | Proliferation (luminescent ATP assay), Mean (Donor 3 COP T-Cell Lines; T-cell line 165-F6C, 2.5 μg/mL antigen, Day 76 of culture, No Antigen value 517): 479 | Proliferation (luminescent ATP assay), Mean (Donor 3 COP T-Cell Lines; T-cell line 165-F6C, 5 μg/mL antigen, Day 76 of culture, No Antigen value 517): 463 | Proliferation (luminescent ATP assay), Mean (Donor 3 COP T-Cell Lines; T-cell line 165-F6C, 10 μg/mL antigen, Day 76 of culture, No Antigen value 517): 449 | proliferation response to non-canonical GA peptides (Donor 3 GMA T-Cell Lines; 165-B5G and 165-E7G, Day 81): responded | Non-Canonical Peptide Non-Reactivity (Donor 3 GMA T-Cell Lines; 165-B5G): GAT 631 | Non-Canonical Peptide Non-Reactivity (Donor 3 GMA T-Cell Lines; 165-C5G): GAT 631 | Non-Canonical Peptide Reactivity (Donor 3 GMA T-Cell Lines; 165-E7G): GAT 631 | Non-Canonical Peptide Non-Reactivity (Donor 3 GMA T-Cell Lines; 165-E9G): GAT 631 | Non-Canonical Peptide Non-Reactivity (Donor 3 GMA T-Cell Lines; 165-F5G): GAT 631 | Non-Canonical Peptide Non-Reactivity (Donor 3 GMA T-Cell Lines; 165-F10G): GAT 631 | proliferation response to non-canonical GA peptides (Donor 3 GMA T-Cell Lines; 165-H11G, Day 50): responded | Non-Canonical Peptide Reactivity (Donor 3 GMA T-Cell Lines; 165-H11G): GAT 631 | Reactive T-Cell Line (Donor 3 GMA T-Cell Lines; Donor 3 GMA lines, at least a 50% increase in proliferation relative to a control after stimulation with the non-canonical GA peptide): 165-H11G (Donor 3) | Nonreactive T-Cell Line (Donor 3 GMA T-Cell Lines; Donor 3 GMA lines, stimulation with the non-canonical GA peptide): 165-B5G (Donor 3) and 165-C5G (Donor 3) and 165-C8G (Donor 3) and 165-E7G (Donor 3) and 165-E9G (Donor 3) and 165-F5G (Donor 3) and 165-F10G (Donor 3) | Proliferation (luminescent ATP assay), Mean (Donor 3 GMA T-Cell Lines; T-cell line 165-05G, 1 μg/mL antigen, Day 50 of culturing, No Antigen Value 2149): 2004 RLU | Proliferation (luminescent ATP assay), Mean (Donor 3 GMA T-Cell Lines; T-cell line 165-05G, 3 μg/mL antigen, Day 50 of culturing, No Antigen Value 2149): 2207 RLU | Proliferation (luminescent ATP assay), Mean (Donor 3 GMA T-Cell Lines; T-cell line 165-05G, 10 μg/mL antigen, Day 50 of culturing, No Antigen Value 2149): 1928 RLU | Proliferation (luminescent ATP assay), Mean (Donor 3 GMA T-Cell Lines; T-cell line 165-05G, 30 μg/mL antigen, Day 50 of culturing, No Antigen Value 2149): 1829 RLU | Proliferation (luminescent ATP assay), Mean (Donor 3 GMA T-Cell Lines; T-cell line 165-B5G, 1 μg/mL antigen, Day 81 of culturing, No Antigen Value 2432): 4666 RLU | Proliferation (luminescent ATP assay), Mean (Donor 3 GMA T-Cell Lines; T-cell line 165-B5G, 1.25 μg/mL antigen, Day 55 of culturing, No Antigen Value 846): 1133 RLU | Proliferation (luminescent ATP assay), Mean (Donor 3 GMA T-Cell Lines; T-cell line 165-B5G, 2.5 μg/mL antigen, Day 55 of culturing, No Antigen Value 846): 1288 RLU | Proliferation (luminescent ATP assay), Mean (Donor 3 GMA T-Cell Lines; T-cell line 165-B5G, 3 μg/mL antigen, Day 81 of culturing, No Antigen Value 2432): 5536 RLU | Proliferation (luminescent ATP assay), Mean (Donor 3 GMA T-Cell Lines; T-cell line 165-B5G, 5 μg/mL antigen, Day 55 of culturing, No Antigen Value 846): 1511 RLU

Source: patent publication US9995734B2, “Human T cell line assay for evaluating the immunologic identity of glatiramer acetate preparations” (Mylan Inc., priority 2013, dated 2018)
